According to patent publication US10494360B2, “Inhibitors of indoleamine 2,3-dioxygenase” (NETHERLANDS TRANSLATIONAL RESEARCH CENTER B.V., priority 2016, dated 2019):
“And” between values parts separate entries of the source, which are not always exact repeats. Identical values can stand only once.

How the values were obtained:
[1] = target: T1, IDO1 (Homo sapiens, UniProt P14902); test: Cell-based assay for IDO1 in interferon-γ stimulated A-375 melanoma cells; conditions: interferon-γ stimulation, 48 hours, read-out: IC50, cell-based IDO1 (NFK levels)
T1 sequence (P14902 whole entry, species assumed): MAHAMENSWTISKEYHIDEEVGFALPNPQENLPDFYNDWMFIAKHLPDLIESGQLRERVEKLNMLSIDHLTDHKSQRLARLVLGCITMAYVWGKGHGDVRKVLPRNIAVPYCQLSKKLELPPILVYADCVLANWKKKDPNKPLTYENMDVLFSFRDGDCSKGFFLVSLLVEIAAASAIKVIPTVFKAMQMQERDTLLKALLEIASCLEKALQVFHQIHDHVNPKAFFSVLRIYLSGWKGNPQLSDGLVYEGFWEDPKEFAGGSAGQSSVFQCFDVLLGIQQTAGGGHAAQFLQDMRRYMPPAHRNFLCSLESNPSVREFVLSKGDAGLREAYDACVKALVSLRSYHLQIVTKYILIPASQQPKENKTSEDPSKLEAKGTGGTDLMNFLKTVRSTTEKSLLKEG
Protocol: The biological activity of IDO1 inhibitors can be measured by applying above detection methods to cells that are treated with test compound. The expression of IDO1 can be induced in many different cell lines by stimulation with IFNγ (Takikawa, O., et al., J. Biol. Chem. 263: 2041; 1988; Seegers, et al.), or IDO1 can be expressed in cells that lack endogenous IDO1 by transfection of an expression vector containing IDO1 cDNA.
A-375 melanoma cells were purchased from LGC Standards GmbH (Wesel, Germany) and cultured in DMEM tissue culture medium (Life Technologies, Bleiswijk, The Netherlands), supplemented with 10% (v/v) bovine calf serum. Compounds were dissolved in DMSO and diluted in DMEM. Final DMSO concentration in the assay was 0.4% (v/v). Eight thousand cells per well in 35 μl were seeded in a black 384-well tissue plate (cat. No. 781086; Greiner Bio-One GmbH, Frickenhausen, Germany) and allowed to adhere by incubation at 37° C., 95% humidity, and 5% CO2 overnight. Then, 5 μl of compound solution was added to the cells 1 hour prior to stimulation with 5 μl of 500 ng/ml interferon-γ (R&D Systems, Minneapolis, Minn., USA) diluted in DMEM medium. At the same time, 5 μl of L-tryptophan in 20 mM Hepes buffer pH 7.4 was added. Incubation was continued for 48 hours. To determine NFK levels, 12 μl NFK Green™ (NTRC, Oss, The Netherlands) was added to each well, and the plate was sealed and incubated for 4 hours at 37° C. Fluorescence was measured on an EnVision multimode reader (Perkin Elmer, Waltham, Mass., USA). IC50 were calculated using XLfit™ software (ID Business Solutions, Ltd., Surrey, U.K.).

[2] = target: T1, IDO1; test: Biochemical IDO1 assay (NFK GreenScreen); design: Recombinant full-length IDO1 (Seegers, N., et al.) and all other assay components were diluted in IDO1 reaction buffer; made in house; conditions: for IC50: recombinant full-length IDO1 25 nM, L-tryptophan 100 μM, NFK Green detection, read-out: IC50, inhibitory potency on IDO1; for relative activity of separated isomers: less active / most active isomer of the pair, assay not given
How it was run: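 Recombinant full-length IDO1 in 50 mM NaH2PO4 pH 7.0 with 0.05% Tween-20 and 1% glycerol converted 100 μM L-tryptophan (final) over 60 min at room temperature with compound, 0.3% DMSO.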

IC50 [1]	IC50 [2]	relative activity of separated isomers [2]	SMILES
< 5 µM	≤ 1 µM	–	CC(c1c(F)cccc1F)N1CC(=O)N(O)C1c1cccc(Br)c1 (single isomer, unassigned) [Example 141b, 2-(3-Bromophenyl)-1-[1-(2,6-difluorophenyl)ethyl]-3-hydroxy-imidazolidin-4-one]
< 5 µM	≤ 1 µM	–	O=C1CN(C(=O)c2c(F)cccc2F)C(c2cccc(Br)c2)N1O (stereo not shown) [Example 27, 2-(3-Bromophenyl)-1-(2,6-difluorobenzoyl)-3-hydroxy-imidazolidin-4-one]
< 5 µM	≤ 1 µM	–	O=C1CN(C(=O)c2c(F)cccc2Cl)C(c2ccc(F)c(Cl)c2)N1O (stereo not shown) [Example 53, 1-(2-Chloro-6-fluoro-benzoyl)-2-(3-chloro-4-fluoro-phenyl)-3-hydroxy-imidazolidin-4-one]
< 5 µM	≤ 1 µM	–	Cn1cc(-c2cc(F)c(C(=O)N3CC(=O)N(O)C3c3cccc(Br)c3)c(F)c2)cn1 (stereo not shown) [Example 119, 2-(3-Bromophenyl)-1-[2,6-difluoro-4-(1-methylpyrazol-4-yl)benzoyl]-3-hydroxy-imidazolidin-4-one]
< 5 µM	≤ 1 µM	most active isomer	C[C@@H](c1ccccc1)N1CC(=O)N(O)C1c1cccc(Br)c1 (single isomer, unassigned) [Example 139b]
< 5 µM	≤ 1 µM	–	COc1cc(F)c(C(=O)N2CC(=O)N(O)C2c2cccc(Br)c2)c(F)c1 (stereo not shown) [Example 66, 2-(3-Bromophenyl)-1-(2,6-difluoro-4-methoxy-benzoyl)-3-hydroxy-imidazolidin-4-one]
< 5 µM	≤ 1 µM	–	O=C1CN(C(=O)c2c(F)cccc2F)C(c2cccc(Cl)c2)N1O (stereo not shown) [Example 15, 2-(3-Chlorophenyl)-1-(2,6-difluorobenzoyl)-3-hydroxy-imidazolidin-4-one]
< 5 µM	≤ 1 µM	–	Cc1cc(F)c(C(=O)N2CC(=O)N(O)C2c2cccc(Br)c2)c(F)c1 (stereo not shown) [Example 116, 2-(3-Bromophenyl)-1-(2,6-difluoro-4-methyl-benzoyl)-3-hydroxy-imidazolidin-4-one]
< 5 µM	≤ 5 µM and 1 to 5 µM	–	O=C1CN(C(=O)c2c(F)cccc2Cl)C(c2ccc(Cl)c(C(F)(F)F)c2)N1O (stereo not shown) [Example 7, 1-(2-Chloro-6-fluoro-benzoyl)-2-[4-chloro-3-(trifluoromethyl)phenyl]-3-hydroxy-imidazolidin-4-one]
< 5 µM	≤ 1 µM	–	O=C1CN(C(=O)c2c(F)cc(F)cc2F)C(c2cccc(Br)c2)N1O (stereo not shown) [Example 82, 2-(3-Bromophenyl)-3-hydroxy-1-(2,4,6-trifluorobenzoyl)imidazolidin-4-one]
< 5 µM	≤ 1 µM	–	O=C1CN(C(=O)c2c(F)c(F)c(F)c(F)c2F)C(c2cccc(Br)c2)N1O (stereo not shown) [Example 62, 2-(3-Bromophenyl)-3-hydroxy-1-(2,3,4,5,6-pentafluorobenzoyl)imidazolidin-4-one]
< 5 µM	≤ 1 µM	–	O=C1CN(C(=O)c2c(F)cccc2F)C(c2cccc(I)c2)N1O (stereo not shown) [Example 71, 1-(2,6-Difluorobenzoyl)-3-hydroxy-2-(3-iodophenyl)imidazolidin-4-one]
< 5 µM	≤ 1 µM	–	COCCNC(=O)c1cc(F)c(C(=O)N2CC(=O)N(O)C2c2cccc(Br)c2)c(F)c1 (stereo not shown) [Example 137, 4-[2-(3-Bromophenyl)-3-hydroxy-4-oxo-imidazolidine-1-carbonyl]-3,5-difluoro-N-(2-methoxyethyl)benzamide]
< 5 µM	≤ 1 µM	–	O=C1CN(C(=O)c2c(F)cc(Br)cc2F)C(c2cccc(Br)c2)N1O (stereo not shown) [Example 85, 1-(4-Bromo-2,6-difluoro-benzoyl)-2-(3-bromophenyl)-3-hydroxy-imidazolidin-4-one]
< 5 µM	≤ 5 µM and 1 to 5 µM	–	N#Cc1cc(F)c(C(=O)N2CC(=O)N(O)C2c2cccc(Br)c2)c(Cl)c1 (stereo not shown) [Example 25, 4-[2-(3-Bromophenyl)-3-hydroxy-4-oxo-imidazolidine-1-carbonyl]-3-chloro-5-fluoro-benzonitrile]
< 5 µM	≤ 1 µM	–	O=C1CN(C(=O)c2c(F)cccc2F)C(c2ccc(F)c(Br)c2)N1O (stereo not shown) [Example 44, 2-(3-Bromo-4-fluoro-phenyl)-1-(2,6-difluorobenzoyl)-3-hydroxy-imidazolidin-4-one]

IC50 [1]	IC50 [2]	relative activity of separated isomers [2]	SMILES
< 5 µM	≤ 1 µM	–	O=C1CN(Cc2ccccc2F)C(c2cccc(Br)c2)N1O (stereo not shown) [Example 125, 2-(3-Bromophenyl)-1-[(2-fluorophenyl)methyl]-3-hydroxy-imidazolidin-4-one]
< 5 µM	≤ 1 µM	–	O=C1CN(Cc2c(F)cccc2F)C(c2cccc(Br)c2)N1O (stereo not shown) [Example 127, 2-(3-Bromophenyl)-1-[(2,6-difluorophenyl)methyl]-3-hydroxy-imidazolidin-4-one]
< 5 µM	≤ 5 µM and 1 to 5 µM	–	O=C1CN(C(=O)c2ccccc2)C(c2ccc(F)c(Br)c2)N1O (stereo not shown) [Example 39, 1-Benzoyl-2-(3-bromo-4-fluoro-phenyl)-3-hydroxy-imidazolidin-4-one]
< 5 µM	≤ 1 µM	–	O=C1CN(C(=O)c2c(F)cc(C#CC3CC3)cc2F)C(c2cccc(Br)c2)N1O (stereo not shown) [Example 106, 2-(3-Bromophenyl)-1-[4-(2-cyclopropylethynyl)-2,6-difluoro-benzoyl]-3-hydroxy-imidazolidin-4-one]
< 5 µM	≤ 1 µM	–	O=C1CN(C(=O)c2ccccc2F)C(c2ccc(F)c(Br)c2)N1O (stereo not shown) [Example 46, 2-(3-Bromo-4-fluoro-phenyl)-1-(2-fluoro-benzoyl)-3-hydroxy-imidazolidin-4-one]
< 5 µM	≤ 1 µM	–	O=C1CN(C(=O)c2c(F)cccc2Cl)C(c2cccc(I)c2)N1O (stereo not shown) [Example 72, 1-(2-chloro-6-fluoro-benzoyl)-3-hydroxy-2-(3-iodophenyl)imidazolidin-4-one]
< 5 µM	≤ 5 µM and 1 to 5 µM	–	O=C1CN(C(=O)c2ccccc2Cl)C(c2cccc(C(F)(F)F)c2)N1O (stereo not shown) [Example 2, 1-(2-Chlorobenzoyl)-3-hydroxy-2-[3-(trifluoromethyl)phenyl]imidazolidin-4-one]
< 5 µM	≤ 1 µM	–	O=C1CN(C(=O)c2cc(F)ccc2F)C(c2cccc(Br)c2)N1O (stereo not shown) [Example 26, 2-(3-Bromophenyl)-1-(2,5-difluorobenzoyl)-3-hydroxy-imidazolidin-4-one]
< 5 µM	≤ 1 µM	–	O=C1CN(C(=O)c2ccc(F)cc2F)C(c2cccc(Cl)c2)N1O (stereo not shown) [Example 59, 2-(3-Chlorophenyl)-1-(2,4-difluorobenzoyl)-3-hydroxy-imidazolidin-4-one]
< 5 µM	≤ 1 µM	–	O=C1CN(C(=O)c2c(F)cc(C3CC3)cc2F)C(c2cccc(Br)c2)N1O (stereo not shown) [Example 114, 2-(3-Bromophenyl)-1-(4-cyclopropyl-2,6-difluoro-benzoyl)-3-hydroxy-imidazolidin-4-one]
< 5 µM	≤ 5 µM and 1 to 5 µM	less active isomer	C[C@@H](c1ccccc1)N1CC(=O)N(O)C1c1cccc(I)c1 (single isomer, unassigned) [Example 140a]
< 5 µM	≤ 1 µM	–	Nc1ccc(F)c(C(=O)N2CC(=O)N(O)C2c2cccc(Br)c2)c1F (stereo not shown) [Example 76, 1-(3-Amino-2,6-difluoro-benzoyl)-2-(3-bromophenyl)-3-hydroxy-imidazolidin-4-one]
< 5 µM	≤ 5 µM and 1 to 5 µM	less active isomer	O=C1CN(C(=O)c2c(F)cccc2F)C(c2cccc(Br)c2)N1O (single isomer, unassigned) [Example 142a, 2-(3-bromophenyl)-1-(2,6-difluorobenzoyl)-3-hydroxy-imidazolidin-4-one]
< 5 µM	≤ 1 µM	–	O=C1CN(C(=O)c2cccc(Cl)c2Cl)C(c2cccc(Br)c2)N1O (stereo not shown) [Example 35, 2-(3-Bromophenyl)-1-(2,3-dichlorobenzoyl)-3-hydroxy-imidazolidin-4-one]
< 5 µM	≤ 1 µM	–	O=C1CN(Cc2ccccc2F)C(c2cccc(I)c2)N1O (stereo not shown) [Example 124, 1-[(2-Fluorophenyl)methyl]-3-hydroxy-2-(3-iodophenyl)imidazolidin-4-one]
< 5 µM	≤ 1 µM	–	O=C1CN(C(=O)c2c(F)cccc2F)C(c2ccc(Cl)c(C(F)(F)F)c2)N1O (stereo not shown) [Example 9, 2-[4-Chloro-3-(trifluoromethyl)phenyl]-1-(2,6-difluorobenzoyl)-3-hydroxy-imidazolidin-4-one]
